# Reference: ChEMBL document CHEMBL5230099, “Free radical scavengers: An overview on heterocyclic advances and medicinal prospects” (Eur J Med Chem, 2020)
# Experiment: Antioxidant activity assessed as BHT equivalent of DPPH radical scavenging activity
# Type: functional
# Details: not given
row,SMILES,Activity
1,O=C(CCc1ccc(O)cc1)c1c(O)cc(O[C@@H]2O[C@H](CO)[C@@H](O)[C@H](O)[C@H]2O)cc1O,0.89 mg
2,O=C(CCc1ccc(O)cc1)c1c(O)cc(O)cc1O,1.27 mg

# Experiment: Antioxidant activity assessed as DPPH radical scavenging activity by measuring inhibition rate relative to control
# Type: functional
# Parameters: concentration or dose not given beside the values
# Details: dose or concentration not given here
row,SMILES,inhibition
1,CSc1nc2nc(N/N=C/c3cccnc3)c3ccccc3n2n1,65%
2,CSc1nc2nc(NNC(=S)NC3CCCCC3)c3ccccc3n2n1,91.2%
3,C=CCNC(=S)NNc1nc2nc(SC)nn2c2ccccc12,91%
4,CSc1nc2nc(N/N=C(\C)c3ccc([N+](=O)[O-])cc3)c3ccccc3n2n1,78%
5,CSc1nc2nc(NN)c3ccccc3n2n1,85.9%

# Experiment: Antioxidant activity assessed as trolox equivalent of ABTS-radical scavenging activity
# Type: functional
# Details: not given
row,SMILES,Activity
1,Cc1cc(N2CCN(c3cccc(C4CC(=O)c5ccccc5O4)c3)CC2)nc(-c2ccccc2O)n1 (configuration not stated),369 µmol/g
2,COc1ccc2c(=O)cc(-c3ccc(N4CCN(c5nc6ccccc6s5)CC4)cc3)oc2c1,317 µmol/g
3,O=C1CC(c2cccc(N3CCN(c4nc5ccccc5s4)CC3)c2)Oc2ccccc21 (configuration not stated),464 µmol/g

# Experiment: Antioxidant activity assessed as DPPH radical scavenging activity incubated for 30 mins under dark condition
# Type: functional
# Details: not given
row,SMILES,IC50
1,CCn1c(-n2cc(/C=N/N=c3/scc(-c4ccc(Br)cc4)n3-c3ccccc3)c(-c3ccc(OC)cc3)n2)nc2c1c(=O)n(C)c(=O)n2C,4.89 µg/mL
2,CCn1c(-n2cc(/C=N/NC(N)=S)c(-c3ccc(Cl)cc3)n2)nc2c1c(=O)n(C)c(=O)n2C,10.24 µg/mL
3,CCn1c(-n2cc(/C=N/N=c3\[nH]c(-c4ccc(Br)cc4)cs3)c(-c3ccc(Cl)cc3)n2)nc2c1c(=O)n(C)c(=O)n2C,5.71 µg/mL

# Experiment: Antioxidant activity assessed as trolox equivalent of DPPH radical scavenging activity
# Type: functional
# Details: not given
row,SMILES,Activity
1,O=C(N/N=C/c1ccc(O)c(O)c1O)c1cc2ccccc2[nH]1,12800 µmol/g
2,O=C(N/N=C/c1ccc(O)cc1O)c1cc2ccccc2[nH]1,2000 µmol/g
3,O=C(N/N=C/c1c(O)cc(O)cc1O)c1cc2ccccc2[nH]1,4190 µmol/g
4,COc1cccc(/C=N/NC(=O)c2cc3ccccc3[nH]2)c1O,38.7 µmol/g
5,O=C(N/N=C/c1ccccc1O)c1cc2ccccc2[nH]1,8.71 µmol/g
6,O=C(N/N=C/c1cc(O)ccc1O)c1cc2ccccc2[nH]1,9960 µmol/g
7,O=C(N/N=C/c1cc(Br)ccc1O)c1cc2ccccc2[nH]1,14.2 µmol/g

# Experiment: Antioxidant activity assessed as DPPH radical scavenging activity at 1 mg/ml incubated for 30 mins relative to control
# Type: functional
# Details: not given
row,SMILES,Activity
1,COc1cc2c(Nc3ccc(O)cc3)c([N+](=O)[O-])cnc2cc1OCCCN1CCC(C)CC1,84%

# Experiment: Antioxidant activity assessed as ABTS-radical scavenging activity measured upto 6 mins
# Type: functional
# Details: not given
row,SMILES,Activity
1,O=C(/C=C/c1ccc(/C=C/C(=O)c2ccc3c(c2)OCO3)cc1)c1ccc2c(c1)OCO2,220 µg/mL
2,O=C(/C=C/c1ccc(/C=C/C(=O)c2ccc(Oc3ccccc3)cc2)cc1)c1ccc(Oc2ccccc2)cc1,174 µg/mL

# Experiment: Antioxidant activity by ORAC-FL method
# Type: functional
# Parameters: reference not given here
# Details: not given
row,SMILES,Activity
1,O=c1c2cccc(Cl)c2[se]n1-c1ccc2cccc(O)c2n1,0.9 µmol
2,O=c1c2c(F)cccc2[se]n1-c1ccc2cccc(O)c2n1,2.3 µmol
3,O=c1c2c(C(F)(F)F)cccc2[se]n1-c1ccc2cccc(O)c2n1,0.2 µmol
4,O=c1c2cccc(C(F)(F)F)c2[se]n1-c1ccc2cccc(O)c2n1,0.3 µmol
5,O=c1c2cccc(F)c2[se]n1-c1ccc2cccc(O)c2n1,3.6 µmol

# Experiment: Antioxidant activity assessed as DPPH radical scavenging activity by measuring inhibition rate at 60 ug/ml incubated for 50 mins in dark by UV-Vis spectrophotometric analysis relative to control
# Type: functional
# Details: dose 60.0 µg/ml
row,SMILES,inhibition
1,COc1cc(-c2nc3ccc(N4CCN(C)CC4)cc3[nH]2)ccc1O,63.6%
2,CN1CCN(c2ccc3nc(-c4ccc(O)c(O)c4)[nH]c3c2)CC1,76.8%
3,Oc1ccc(-c2nc3ccc(N4CCOCC4)cc3[nH]2)cc1O,77%
4,COc1cc(-c2nc3ccc(N4CCOCC4)cc3[nH]2)ccc1O,76.1%

# Experiment: Antioxidant activity assessed as DPPH radical scavenging activity at 0.25 mg/ml incubated for 30 mins relative to control
# Type: functional
# Details: not given
row,SMILES,Activity
1,COc1cc2c(Nc3ccc(O)cc3)c([N+](=O)[O-])cnc2cc1OCCCN1CCC(C)CC1,36%

# Experiment: Antioxidant activity assessed as DPPH radical scavenging activity
# Type: functional
# Details: not given
SMILES,IC50,EC50
Oc1cc(Cc2ccccc2)c(O)cc1Br,13.32 µg/mL,
O=C(c1cc(O)c(O)c(O)c1)c1cc(O)c(Br)cc1O,14.43 µg/mL,
O=C(O)CN1C(=O)S/C(=C\c2cn(-c3ccccc3)nc2-c2ccccc2)C1=O,128.55 µg/mL,
O=C(c1ccccc1)c1ccc(O)cc1Br,19.24 µg/mL,
COC(=O)c1c(O)c2ccccc2c2occc12 [FUROMOLLUGIN],100 µg/mL,
C[C@H]1O[C@H](O[C@H]2[C@H](O)[C@@H](O)[C@@H](O[C@H]3[C@H](O)[C@@H](O)C(O)O[C@@H]3CO)O[C@@H]2CO)[C@H](O)[C@@H](O)[C@@H]1N[C@H]1C=C(CO)[C@@H](O)[C@H](O)[C@H]1O (some centres not stated) [ACARBOSE],81.12 µg/mL,
CC1(C)C=Cc2c(C(=O)O)c(O)c3ccccc3c2O1,42.5 µg/mL,
COC(=O)c1c2c(c3ccccc3c1O)OC(C)(C)C=C2 [MOLLUGIN],0.7 µg/mL,
COc1cc(/C=C/C(=O)CC(=O)/C=C/c2ccc(O)c(OC)c2)ccc1O [CURCUMIN],28 µg/mL,
O=C(O)/C=C/c1ccc(O)c(O)c1 [CAFFEIC ACID],0.8 µg/mL,
O=C1S/C(=C\c2cn(-c3ccccc3)nc2-c2ccc(O)cc2)C(=O)N1Cc1ccccc1,110.88 µg/mL,
CNc1cc(/C=C/c2cc(/C=C/c3ccc(OCC(N)=O)c(OC)c3)[nH]n2)ccc1OCC(N)=O,20 µg/mL,
O=C(c1ccc(O)c(O)c1)c1cc(O)c(Br)cc1O,16.44 µg/mL,
O=C(/C=C/c1ccc(O)c(O)c1)O[C@@H]1C[C@](O)(C(=O)O)C[C@@H](O)[C@H]1O [CHLOROGENIC ACID],,13.8 µg/mL
O=C(/C=C/c1ccc(O)c(O)c1)O[C@@H]1C[C@@](O)(C(=O)O)C[C@@H](O)[C@@H]1O,,13.4 µg/mL
Oc1ccc(Cc2cc(O)c(Br)cc2O)cc1,13.86 µg/mL,
O=C(/C=C/c1ccc(O)c(O)c1)O[C@H](Cc1ccc(O)c(O)c1)C(=O)O [ROSMARINIC ACID],0.4 µg/mL,
COc1ccc(-c2nn(-c3ccccc3)cc2/C=C2\SC(=O)N(Cc3ccccc3)C2=O)cc1,127.18 µg/mL,

# Same assay, conditions: read-out: IC50
row,SMILES,IC50
1,O=C(O)C1CS[C@@H](c2cccc(F)c2F)N1 (some centres not stated),0.83 µM
2,COc1ccccc1[C@H]1NC(C(=O)O)CS1 (some centres not stated),1.5 µM
3,O=C(O)C1CS[C@@H](c2ccccc2)N1 (some centres not stated),1.54 µM
4,O=C(O)C1CS[C@@H](c2cccc(Cl)c2)N1 (some centres not stated),1.52 µM
5,Cc1ccc([C@H]2NC(C(=O)O)CS2)cc1 (some centres not stated),1.22 µM
6,O=C(O)C1CS[C@@H](c2cccc(Cl)c2Cl)N1 (some centres not stated),0.93 µM
